Literature values, collected in paper PMC7395068, “The evolution of strategies to minimise the risk of human drug-induced liver injury (DILI) in drug discovery and development” (Archives of Toxicology, 2020).
Where two headings read alike, the source gives them in different places.

How the values were obtained:
[1] = ref Chen 2016; cited from earlier work
[2] = test system: primary human hepatocytes, NIH3T3 fibroblasts, BSEP, CYP3A4; details: In vitro Assay; ref Schadt 2015; cited from earlier work
HepG2 cells [3] = details: In vitro Assay; ref Persson 2013; cited from earlier work
PHH spheroids = details: cited from earlier work; for hLiMTs ATP <20 x Cmax: In vitro Assay, ref Vorrink 2018
[4] = cited from earlier work
[5] = test system: THLE-Null and THLE-3A4 cells; details: In vitro Assay; ref Gustafsson 2014; cited from earlier work
[6] = test system: HepG2 cells, primary human hepatocytes; details: In vitro Assay; ref Garside 2014; cited from earlier work
[7] = test system: isolated mouse liver mitochondria; details: In vitro Assay; ref Porceddu 2012; cited from earlier work
rBsep = details: In vitro Assay; ref Dawson 2012; cited from earlier work
human hepatocytes = details: In vitro Assay; ref Xu 2008; cited from earlier work
[8] = test system: THLE or HepG2 cells, isolated mitochondria, BSEP; details: In vitro Assay; ref Aleo 2019; cited from earlier work
HepG2 cells [9] = details: In vitro Assay; ref O'Brien 2006; cited from earlier work

| Structure (SMILES) | DILI +VE (5-8), DILI -VE (-4) [1] | DILI severity category [1] | hLiMTs ATP <20 x Cmax (PHH spheroids) | In vivo DILI ([4]; […]) | In vivo DILI ([4]; ref Dawson 2012) | In vivo DILI ([4]; ref Garside 2014) | In vivo DILI ([4]; ref Gustafsson 2014) | In vivo DILI ([4]; ref Vorrink 2018) | THLE-Null [5] | THLE-Null/3A4 [5] | Cluster 1-6 +VE Assay [6] | Inhibition of rBsep cutoff<1& cmax u>.2 (rBsep) | Inhibition of rBsep cutoff<3 (rBsep) | Structural based (HCI) (human hepatocytes) | In vivo DILI ([4]; ref Xu 2008) | also measured |
| --- | --- | --- | --- | --- | --- | --- | --- | --- | --- | --- | --- | --- | --- | --- | --- | --- |
| CCCN(CCC)C(=O)Cc1c(-c2ccc(Cl)cc2)nc2ccc(Cl)cn12 [alpidem] | +VE | vMost-DILI-Concern | +VE (IC20 < 20 × Cmax.tot cut-off) | +VE | +VE | +VE | +VE | +VE | -VE | -VE | +VE | +VE | +VE | – | – | Cellular toxicity (3T3 cells) [2]: -VE; Combined Assay [2]: -VE; GSH adduct HML [2]: +VE; Hepatocyte cellular toxicity [2]: +VE; MitoTox 3T3 [2]: -VE; TDI CYP3A4 [2]: -VE; hBSEP inhibition [2]: +VE; Cluser analysis (HepG2 cells [3]): +VE; Structural based (HCI) (HepG2 cells [3]): +VE; In vivo DILI ([4]; ref Persson 2013): +VE; In vivo DILI ([4]; ref Porceddu 2012): +VE; In vivo DILI ([4]; ref Schadt 2015): +VE; in vitro data EC2<=1x Cmax [7]: +VE; in vitro data EC20<=2uM [7]: +VE |
| NNc1nnc(NN)c2ccccc12 [dihydralazine] | – | – | +VE (IC20 < 20 × Cmax.tot cut-off) | – | +VE | +VE | +VE | +VE | -VE | -VE | +VE | -VE | -VE | – | – | – |
| CCN(CC)C(=S)SSC(=S)N(CC)CC [disulfiram] | – | – | +VE (IC20 < 20 × Cmax.tot cut-off) | – | – | – | – | – | +VE | – | +VE | – | – | – | – | in vitro data EC2<=1x Cmax [7]: +VE |
| NCCc1ccc(O)c(O)c1 [dopamine] | -VE | vNo-DILI-Concern | -VE | – | -VE | -VE | -VE | -VE | -VE | -VE | -VE | -VE | -VE | -VE | -VE | – |
| O=C(OCC(O)CO)c1ccccc1Nc1ccnc2cc(Cl)ccc12 (stereo not drawn) [glafenine] | +VE | vMost-DILI-Concern | -VE | +VE | +VE | +VE | +VE | +VE | -VE | +VE | +VE | +VE | +VE | -VE | +VE | – |
| Cc1ccc(S(=O)(=O)NC(=O)NN2CC3CCCC3C2)cc1 (stereo not drawn) [gliclazide] | – | – | – | – | +VE | +VE | +VE | – | -VE | -VE | -VE | -VE | -VE | -VE | -VE | – |
| CC(C)NNC(=O)c1ccncc1 [iproniazid, reference compound] | +VE | vMost-DILI-Concern | -VE | +VE | +VE | +VE | +VE | +VE | -VE | -VE | -VE | -VE | -VE | – | – | Cluser analysis (HepG2 cells [3]): -VE; Structural based (HCI) (HepG2 cells [3]): +VE; Partition Hybrid HRM Score [8]: -VE; Ro2 Hybrid HRM Score [8]: -VE; response of PHH spheroids at 5 × Cmax.tot (PHH spheroids; ATP, 14 days, not positive at higher concentrations, ref Vorrink et al. 2018): positive; In vivo DILI ([4]; ref Aleo 2019): +VE; In vivo DILI ([4]; ref Persson 2013): +VE |
| CN(C)CCN(Cc1cccs1)c1ccccn1 [methapyrilene] | – | – | -VE | – | -VE | -VE | -VE | -VE | -VE | – | -VE | – | – | – | – | Structural based (HCI) (HepG2 cells [9]): +VE; In vivo DILI ([4]; ref O'Brien 2006): +VE |
| CC(=O)Nc1ccc(OCC(O)CNC(C)C)cc1 (stereo not drawn) [practolol] | – | – | -VE | – | – | – | – | – | -VE | – | -VE | -VE | -VE | – | – | – |
| CCCN(CCC)S(=O)(=O)c1ccc(C(=O)O)cc1 [probenecid] | -VE | Ambiguous DILI-concern | – | – | +VE | +VE | +VE | – | -VE | -VE | +VE | -VE | -VE | – | – | Cellular toxicity (3T3 cells) [2]: -VE; Combined Assay [2]: -VE; GSH adduct HML [2]: -VE; Hepatocyte cellular toxicity [2]: -VE; MitoTox 3T3 [2]: -VE; TDI CYP3A4 [2]: -VE; hBSEP inhibition [2]: -VE; In vivo DILI ([4]; ref Schadt 2015): -VE |
